Reference: publication PMC9664070, “The anticonvulsant phytocannabinoids CBGVA and CBDVA inhibit recombinant T-type channels” (Frontiers in Pharmacology, 2022)

Assays:
[1] = system: diacylglycerol lipase; set-up: method as in de Petrocellis et al., 2011; conditions: ref de Petrocellis et al., 2011; cited from earlier work
[2] = target: T1, GPR55 (Homo sapiens, UniProt Q9Y2T6); test: Alphascreen ERK phosphorylation assay, antagonism of ML-186-induced ERK phosphorylation; type: cell-based; conditions: in the presence of EC80 of ML-186 (0.45 µM), HEK 293 GPR55 cells
T1 construct: expressed in transfected cells; host or cells: HEK 293
Protocol: (§1) Unless otherwise stated, five independent experiments were performed for each condition, with each experiment conducted in duplicate. For the calcium assay, change in fluorescence by 10 mM Ca in the presence of drugs was normalised to change in fluorescence caused by 10 mM Ca in the presence of vehicle only to allow for comparison. In the Alphascreen assay, results were normalised to EC80 of ML-186 after subtraction of basal ERK phosphorylation (presence of a vehicle and 0.2% DMSO) to allow for easy comparison between phytocannabinoid activities. We fitted all concentration-response curves to a 4-parameter sigmoidal inhibitory response curve in GraphPad Prism (Version 6 GraphPad Software Inc., CA, United States) to derive IC50 and Emax values. All statistical analyses were conducted with GraphPad Prism. Two-tailed, unpaired t-tests were used to compare two data points and one-way ANOVA for more than two data points with Tukey post-hoc analysis. p-values < 0.05 were considered statistically significant.

[3] = target: T2, Cav3.1 (Homo sapiens, UniProt O43497); test: Whole-cell voltage-clamp electrophysiology in HEK293 Flp-In T-REx cells; type: cell-based
T2 construct: expressed in transfected cells; host or cells: HEK293 Flp-In T-REx
Protocol: All whole-cell voltage-clamp recordings from HEK293 Flp-In T-REx cells stably transfected with human Cav3.1, Cav 3.2 and Cav 3.3 were performed at room temperature. At least 24 h prior to experiments, cells were detached from flasks using trypsin/EDTA and plated into 10 cm sterile tissue culture dishes containing 10 ml of supplemented DMEM and 10–15 glass coverslips (12 mm diameter, ProScitech, QLD, Australia). Culture dishes were then kept overnight in same conditions as flasks to allow cells to adhere to coverslips. They were then transferred to a 30°C/5% CO2 incubator to inhibit cell proliferation until ready to be used for electrophysiology experiments. At this stage, channel expression was induced with tetracycline (2 μg/ml, Sigma-Aldrich) 8–24 h prior to recording cells.
External recording solutions contained (in mM): 114 CsCl, 5 BaCl2, 1 MgCl2, 10 HEPES, 10 glucose, adjusted to pH 7.4 with CsOH. The internal patch pipette solution contained (in mM): 126.5 CsMeSO4, 2 MgCl2, 11 EGTA, 10 HEPES adjusted to pH 7.3 with CsOH. Internal solution was supplemented with 0.6 mM GTP and 2 mM ATP and mixed thoroughly just before use. Liquid junction potentials for the above solutions were calculated before experiments using pClamp 10 software and corrected during experiments. Compounds were prepared daily from 30 mM DMSO stocks and diluted into an external solution just before use. Compounds were then applied rapidly and locally to the cells using a custom-built gravity-driven micro-perfusion system ([Feng et al., 2003]). […] Currents were elicited from a holding potential of -100 mV and were measured by conventional whole-cell patch clamp techniques using an Axopatch 200B amplifier in combination with Clampex 9.2 software. (Molecular Devices, Sunnyvale, CA). After establishing whole cell configuration, cellular capacitance was minimised using the amplifier’s built-in analogue compensation. Series resistance was kept to <10 MΩ and was compensated to at least 85% in all experiments. All data were digitised at 10 kHz with a Digidata 1,320 interface (Molecular Devices) and filtered at 1 kHz (8-pole Bessel filter). Raw and online leak-subtracted data were both collected simultaneously, P/N4 leak subtraction was performed using opposite polarity and after the protocol sweep.
For tonic inhibition of T-type currents, membrane potential was stepped from −100 mV to −30 mV for 200 ms and then allowed to recover for 12 s (1 sweep). A minimum of 10 sweeps were collected under vehicle control external perfusion to allow for control peak current to equilibrate. The drug was then continuously perfused, and sweeps were recorded until no further inhibition was seen (minimum of 3 sweeps with the same amplitude). In current-voltage relation studies, the membrane potential was held at −100 mV and cells were depolarised from −70 to 50 mV in 10 mV increments. For steady-state inactivation studies, a 3.6 s conditioning pre-pulse of various magnitudes (initial holding at −110 mV) was followed by a depolarising pulse to −30 mV. Individual sweeps were separated by 12 s to permit recovery from inactivation between conditioning pulses. The duration of the test pulse was typically 20 ms, and the current amplitude obtained from each test pulse was normalised to that observed at the holding potential of −100 mV.
The effect of CBGVA and CBDVA (5 µM each) on slow inactivation was tested using a 2-pulse voltage protocol as described in Bladen et al., (2021). Briefly, cells expressing Cav3.1 were initially depolarised with a 200 ms test pulse from -120 mV to −30 mV to generate peak current (P1) and followed by a 10 s pre-conditioning pulse to −80 mV to reverse fast inactivation. Cells were further depolarised with another 200 ms test pulse from −120 to −30 mV (P2) (Figure 2 inset).
THC and CBD cause substantial frequency-dependent inhibition of Cav3.2 and Nav1.8 channels, respectively ([Ross et al., 2008]; [Bladen et al., 2021]; [Zhang and Bean, 2021]). […]

[4] = system: autaptic hippocampal neurons; set-up: method as in Straiker et al., 2021; conditions: ref Straiker et al., 2021; cited from earlier work
[5] = system: dorsal root ganglion neurons; set-up: method as in Straiker et al., 2021; conditions: ref Straiker et al., 2021; cited from earlier work
[6] = Plasma and brain exposure at anticonvulsant doses in mice (literature); type: in vivo; conditions: from peak plasma concentration and brain-plasma ratio
[7] = target: T2, Cav3.1; test: FLIPR calcium 5 assay, inhibition of 10 mM Ca-induced fluorescence; type: cell-based
Protocol: (§2) Calcium 5 dye (Molecular Devices, United States ) was used to investigate compound activities at T-type calcium channels using Flexstation III. HEK293 cells overexpressing Cav3.1, Cav 3.2, and Cav 3.3 cells were resuspended in Leibovitz’s L-15 media containing 1% FBS, 1% P/S and 15 mM glucose. 90 µl of the resuspended cells (120,000 cells/well) were plated in a black-walled, 96-well microplate (Corning, NY, United States ) and incubated overnight in humidified air at 37°C. Channel expression was induced with tetracycline (2 μg/ml, Sigma-Aldrich) at plating. On the day of the assay, 90 µl of HBSS containing 5% Calcium dye (bulk kit) and 2.5 mM probenecid (Invitrogen, United States ) was added to each well and incubated for 1 h at 37°C. Change in fluorescence was measured in a FlexStation III plate reader every 2 s (ʎexcitation = 485 nm, ʎemission = 525 nm) for the duration of the experiment at 37°C. After 2 min baseline recording, drugs (20 µL) were added and read for 5 min, followed by 10 mM CaCl2 (20 µl) and read for a further 3 min.
as §1
(§3) Our investigation of T-type channels began with a single-point screen, as described by [Bladen et al. (2021)]. We screened the inhibitory effect of 10 µM phytocannabinoids on the change in fluorescence elicited by the addition of 10 mM Ca^2+ in cells expressing Cav3.1, Cav3.2 or Cav3.3 channels ([Xie et al., 2007]; [Bladen et al., 2021]).

[8] = target: T3, Cav3.2 (Homo sapiens, UniProt O95180); test: as above; type: cell-based; conditions: for % Inhibition of Fluorescence Cav3.2: 10 µM compound, 10 mM Ca-induced fluorescence, HEK293 cells, mean ± SEM
T3 construct: expressed in transfected cells; host or cells: HEK293 Flp-In T-REx
Protocol: as §2, §1, §3

[9] = target: T4, Cav3.3 (Homo sapiens, UniProt Q9P0X4); test: as above; type: cell-based; conditions: 10 µM compound, HEK293 cells, mean ± SEM
T4 construct: expressed in transfected cells; host or cells: HEK293 Flp-In T-REx
Protocol: as §2, §1, §3

[10] = ref Anderson et al., cited from earlier work
[11] = system: hyperthermia-induced seizures; set-up: method as in earlier work; conditions: Scn1a+/- mice, ref Anderson et al., 2019, 2021a, 2021b; cited from earlier work
[12] = system: Cav3.1; set-up: method as in Ross et al., 2008; conditions: ref Ross et al., 2008; read-out: IC50, inhibition of peak Cav3.1 currents; cited from earlier work
[13] = system: Cav3.2; set-up: method as in Ross et al., 2008; conditions: ref Ross et al., 2008; read-out: IC50, inhibition of peak Cav3.2 currents; cited from earlier work

T4 sequence (Q9P0X4 whole entry): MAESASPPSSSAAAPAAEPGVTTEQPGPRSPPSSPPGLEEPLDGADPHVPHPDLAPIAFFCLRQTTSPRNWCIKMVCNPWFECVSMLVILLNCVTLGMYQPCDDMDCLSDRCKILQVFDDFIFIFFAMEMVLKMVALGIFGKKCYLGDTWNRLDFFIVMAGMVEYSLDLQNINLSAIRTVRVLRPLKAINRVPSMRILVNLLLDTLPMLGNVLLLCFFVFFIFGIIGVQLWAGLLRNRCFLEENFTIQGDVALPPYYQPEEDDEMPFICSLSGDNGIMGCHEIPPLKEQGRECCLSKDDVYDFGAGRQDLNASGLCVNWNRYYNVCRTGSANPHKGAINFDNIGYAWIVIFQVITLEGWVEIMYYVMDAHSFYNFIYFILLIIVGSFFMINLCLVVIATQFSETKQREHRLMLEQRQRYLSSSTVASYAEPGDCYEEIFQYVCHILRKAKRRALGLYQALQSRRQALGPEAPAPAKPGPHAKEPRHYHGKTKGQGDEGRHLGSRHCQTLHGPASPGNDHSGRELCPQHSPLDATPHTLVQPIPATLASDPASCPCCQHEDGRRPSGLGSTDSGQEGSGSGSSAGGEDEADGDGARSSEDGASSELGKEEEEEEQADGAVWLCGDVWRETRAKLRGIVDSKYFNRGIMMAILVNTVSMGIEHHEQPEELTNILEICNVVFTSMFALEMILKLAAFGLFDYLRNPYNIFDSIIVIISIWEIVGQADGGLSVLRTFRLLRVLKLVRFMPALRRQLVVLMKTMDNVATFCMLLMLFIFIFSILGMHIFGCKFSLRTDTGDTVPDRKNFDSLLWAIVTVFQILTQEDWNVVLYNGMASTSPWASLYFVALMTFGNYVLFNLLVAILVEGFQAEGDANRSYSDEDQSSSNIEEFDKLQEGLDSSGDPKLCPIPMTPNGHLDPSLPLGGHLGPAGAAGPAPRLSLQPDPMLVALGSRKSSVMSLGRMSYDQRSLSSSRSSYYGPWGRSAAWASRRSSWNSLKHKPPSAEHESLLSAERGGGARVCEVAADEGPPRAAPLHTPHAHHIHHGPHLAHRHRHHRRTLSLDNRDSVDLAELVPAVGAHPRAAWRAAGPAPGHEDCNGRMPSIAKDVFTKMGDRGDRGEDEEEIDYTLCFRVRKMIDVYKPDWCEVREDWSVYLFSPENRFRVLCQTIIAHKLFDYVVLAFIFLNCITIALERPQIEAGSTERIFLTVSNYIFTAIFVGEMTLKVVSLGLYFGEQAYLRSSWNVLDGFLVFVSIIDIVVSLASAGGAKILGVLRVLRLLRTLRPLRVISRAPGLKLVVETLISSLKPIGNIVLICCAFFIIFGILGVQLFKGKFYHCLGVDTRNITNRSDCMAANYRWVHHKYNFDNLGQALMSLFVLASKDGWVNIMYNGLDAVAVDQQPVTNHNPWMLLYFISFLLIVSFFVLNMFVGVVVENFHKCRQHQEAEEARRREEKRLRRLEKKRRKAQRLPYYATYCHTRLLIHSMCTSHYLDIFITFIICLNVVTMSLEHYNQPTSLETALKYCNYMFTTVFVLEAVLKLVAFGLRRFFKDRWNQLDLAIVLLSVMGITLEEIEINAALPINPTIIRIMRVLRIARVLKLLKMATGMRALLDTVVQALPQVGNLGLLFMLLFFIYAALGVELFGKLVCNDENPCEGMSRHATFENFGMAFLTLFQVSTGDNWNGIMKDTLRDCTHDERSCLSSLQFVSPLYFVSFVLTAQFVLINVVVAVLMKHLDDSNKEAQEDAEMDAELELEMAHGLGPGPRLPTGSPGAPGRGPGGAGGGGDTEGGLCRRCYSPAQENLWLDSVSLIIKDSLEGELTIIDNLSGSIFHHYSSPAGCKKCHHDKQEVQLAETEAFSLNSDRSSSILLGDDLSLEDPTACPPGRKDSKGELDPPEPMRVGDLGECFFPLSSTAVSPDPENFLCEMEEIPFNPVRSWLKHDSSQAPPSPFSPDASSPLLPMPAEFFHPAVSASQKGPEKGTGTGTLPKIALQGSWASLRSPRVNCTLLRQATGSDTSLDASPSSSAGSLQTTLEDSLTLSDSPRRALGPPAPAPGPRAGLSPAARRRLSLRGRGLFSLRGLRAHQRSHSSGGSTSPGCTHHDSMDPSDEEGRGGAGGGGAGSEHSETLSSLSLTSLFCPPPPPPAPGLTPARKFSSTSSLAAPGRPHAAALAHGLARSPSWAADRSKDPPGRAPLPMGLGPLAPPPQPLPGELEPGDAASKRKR
T2 sequence (O43497 whole entry): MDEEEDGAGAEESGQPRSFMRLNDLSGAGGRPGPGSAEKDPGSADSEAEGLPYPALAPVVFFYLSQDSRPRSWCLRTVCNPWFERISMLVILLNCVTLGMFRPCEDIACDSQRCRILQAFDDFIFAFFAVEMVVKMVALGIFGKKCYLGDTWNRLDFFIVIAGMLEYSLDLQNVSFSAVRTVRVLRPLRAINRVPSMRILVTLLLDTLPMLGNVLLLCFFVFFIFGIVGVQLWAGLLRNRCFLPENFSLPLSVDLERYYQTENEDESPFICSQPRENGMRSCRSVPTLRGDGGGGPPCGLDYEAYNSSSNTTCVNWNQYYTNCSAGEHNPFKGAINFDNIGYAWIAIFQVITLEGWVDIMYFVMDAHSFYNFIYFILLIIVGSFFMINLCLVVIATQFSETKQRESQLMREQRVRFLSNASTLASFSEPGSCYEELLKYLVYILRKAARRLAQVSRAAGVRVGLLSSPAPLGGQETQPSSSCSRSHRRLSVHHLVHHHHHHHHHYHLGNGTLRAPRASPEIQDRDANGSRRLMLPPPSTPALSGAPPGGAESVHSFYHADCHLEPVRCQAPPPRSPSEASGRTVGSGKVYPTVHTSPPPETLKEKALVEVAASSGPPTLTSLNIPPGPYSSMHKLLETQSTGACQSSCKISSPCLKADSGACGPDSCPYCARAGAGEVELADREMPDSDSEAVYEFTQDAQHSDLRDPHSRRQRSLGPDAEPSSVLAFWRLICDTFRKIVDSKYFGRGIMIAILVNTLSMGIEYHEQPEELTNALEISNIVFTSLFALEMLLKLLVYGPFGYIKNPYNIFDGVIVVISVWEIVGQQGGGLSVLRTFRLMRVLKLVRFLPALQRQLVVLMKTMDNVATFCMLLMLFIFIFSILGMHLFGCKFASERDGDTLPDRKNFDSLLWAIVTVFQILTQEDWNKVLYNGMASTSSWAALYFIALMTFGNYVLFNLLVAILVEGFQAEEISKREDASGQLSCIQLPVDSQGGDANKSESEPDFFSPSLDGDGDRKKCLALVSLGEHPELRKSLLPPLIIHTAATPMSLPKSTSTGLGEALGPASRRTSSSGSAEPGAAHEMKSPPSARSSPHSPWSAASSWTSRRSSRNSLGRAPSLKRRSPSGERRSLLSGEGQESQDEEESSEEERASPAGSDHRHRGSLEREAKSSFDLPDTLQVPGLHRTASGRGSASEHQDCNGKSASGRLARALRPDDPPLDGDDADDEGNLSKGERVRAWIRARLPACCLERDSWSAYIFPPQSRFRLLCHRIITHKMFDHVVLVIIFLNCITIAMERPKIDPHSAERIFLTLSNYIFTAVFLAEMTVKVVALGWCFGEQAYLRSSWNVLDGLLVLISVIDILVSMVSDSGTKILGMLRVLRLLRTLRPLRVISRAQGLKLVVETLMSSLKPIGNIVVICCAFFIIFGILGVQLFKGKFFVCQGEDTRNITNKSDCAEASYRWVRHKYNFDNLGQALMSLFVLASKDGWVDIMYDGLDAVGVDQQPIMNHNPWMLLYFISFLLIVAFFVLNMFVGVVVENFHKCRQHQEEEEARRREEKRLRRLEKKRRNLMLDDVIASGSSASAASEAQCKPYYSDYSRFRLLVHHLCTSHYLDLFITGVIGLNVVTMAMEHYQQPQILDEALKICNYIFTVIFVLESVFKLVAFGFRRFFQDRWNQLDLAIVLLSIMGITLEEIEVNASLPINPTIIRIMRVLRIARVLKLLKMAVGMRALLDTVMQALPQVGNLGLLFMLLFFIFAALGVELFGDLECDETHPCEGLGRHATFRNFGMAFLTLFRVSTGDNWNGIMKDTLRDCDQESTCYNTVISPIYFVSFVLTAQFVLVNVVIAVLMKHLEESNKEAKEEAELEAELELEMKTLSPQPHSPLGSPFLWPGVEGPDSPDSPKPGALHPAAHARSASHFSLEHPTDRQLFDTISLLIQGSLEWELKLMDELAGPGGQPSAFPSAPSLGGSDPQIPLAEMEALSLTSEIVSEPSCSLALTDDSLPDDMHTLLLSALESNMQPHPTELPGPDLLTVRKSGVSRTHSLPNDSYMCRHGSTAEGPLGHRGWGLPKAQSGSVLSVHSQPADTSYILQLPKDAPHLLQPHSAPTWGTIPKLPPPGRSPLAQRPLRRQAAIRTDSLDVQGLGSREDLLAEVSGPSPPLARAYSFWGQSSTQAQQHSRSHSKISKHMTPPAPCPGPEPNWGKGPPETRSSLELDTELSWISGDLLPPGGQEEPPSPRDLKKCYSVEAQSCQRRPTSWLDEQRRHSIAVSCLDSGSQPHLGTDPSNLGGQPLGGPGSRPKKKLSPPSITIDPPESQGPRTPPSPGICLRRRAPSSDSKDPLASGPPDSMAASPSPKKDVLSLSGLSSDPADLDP
T1 sequence (Q9Y2T6 whole entry, species assumed): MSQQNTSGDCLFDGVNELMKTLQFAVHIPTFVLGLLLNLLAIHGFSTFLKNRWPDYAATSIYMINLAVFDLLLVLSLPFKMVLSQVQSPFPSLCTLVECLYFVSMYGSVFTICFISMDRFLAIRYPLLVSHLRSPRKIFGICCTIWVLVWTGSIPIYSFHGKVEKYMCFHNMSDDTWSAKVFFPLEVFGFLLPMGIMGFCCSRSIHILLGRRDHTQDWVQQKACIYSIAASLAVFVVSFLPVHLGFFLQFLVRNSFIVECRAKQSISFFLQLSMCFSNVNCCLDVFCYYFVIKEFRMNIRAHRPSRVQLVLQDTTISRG

C=C(C)[C@@H]1CCC(C)=C[C@H]1c1c(O)cc(CCC)c(C(=O)O)c1O [CBDVA, cannabidivarinic acid]
inhibition of diacylglycerol lipase [1]: inhibit the endocannabinoid synthetic enzyme diacylglycerol lipase at a relatively high concentration | IC50 [2]: 10 µM | V0.5 of voltage dependence of Cav3.1 activation ([3]; 5 µM compound): −54.7 ± 1.2 mV | half-inactivation (V0.5), steady-state inactivation of Cav3.1 ([3]; 5 µM compound): −70.9 ± 0.5 mV | Cav3.1 relative current at 50th action potential, % of first ([3]; 5 µM, 0.4 Hz stimulation): 90 ± 1% | Cav3.1 relative current at 50th action potential, % of first ([3]; 5 µM, 0.8 Hz stimulation): 93 ± 1% | inhibition of Cav3.1 peak current, second test pulse (P2), slow inactivated state ([3]; 5 µM, 2-pulse voltage protocol, after 10 s pre-conditioning pulse to −80 mV): 45 ± 5% | inhibition of Cav3.1 peak current, first test pulse (P1) ([3]; 5 µM, 2-pulse voltage protocol, before slow inactivation): 35 ± 5% | Cav3.1 relative current at 50th action potential, % of first ([3]; 5 µM, 2.0 Hz stimulation): 83 ± 1% | IC50 ([3]; patch clamp, step −100 mV to −30 mV every 12 s, read-out: IC50, tonic inhibition of Cav3.1 current amplitude): 7 µM | effect on excitatory neurotransmission [4]: did not alter excitatory neurotransmission | effect on calcium responses [5]: did not alter calcium responses | expected brain concentration [6]: 5 µM | IC50 ([7]; FLIPR concentration-response, HEK293 Cav3.1 cells, read-out: IC50, inhibition of change in fluorescence, Cav3.1): 2 µM | IC50 ([8]; FLIPR concentration-response, HEK293 Cav3.2 cells, read-out: IC50, inhibition of change in fluorescence, Cav3.2): 11 µM | % Inhibition of Fluorescence Cav3.3 [9]: 8 ± 4% | Peak plasma concentration ([10]; anticonvulsant doses in mice, 2021b): ~239 µM | brain-plasma ratio [10]; 2019: 2% | effect against hyperthermia-induced seizures [11]: anticonvulsant

CCCc1cc2c(c(O)c1C(=O)O)C=CC(C)(CCC=C(C)C)O2 (stereo not shown) [CBCVA, cannabichrovarinic acid]
% Inhibition of Fluorescence Cav3.1 ([7]; 10 µM compound, 10 mM Ca-induced fluorescence, HEK293 cells, mean ± SEM): 51 ± 8% | % Inhibition of Fluorescence Cav3.2 [8]: 62 ± 8% | % Inhibition of Fluorescence Cav3.3 [9]: 34 ± 12% | effect against hyperthermia-induced seizures [11]: anticonvulsant

C=C(C)[C@@H]1CCC(C)=C[C@H]1c1c(O)cc(CCCCC)cc1O [CBD, cannabidiol]
IC50 [12]: ~1 µM | IC50 [13]: ~1 µM

CCCc1cc(O)c2c(c1)OC(C)(CCC=C(C)C)C=C2 (stereo not shown) [CBCV]
% Inhibition of Fluorescence Cav3.2 [8]: -37 ± 21% | effect on influx of Ca2+ ions in cells expressing Cav3.2 ([8]; 10 µM, FLIPR): appeared to increase the influx of Ca^2+ ions | % Inhibition of Fluorescence Cav3.3 [9]: 1 ± 1%
